What was measured:
Conditions in all cases: Compound concentration 1000.0 nM
[1] = system: ALK tyrosine kinase receptor (Homo sapiens), Q9UM73 [L1196M]
[2] = molecular target: Serine/threonine-protein kinase pim-1 (Homo sapiens) (UniProt P11309)
[3] = molecular target: T1, Serine/threonine-protein kinase Nek11 (Homo sapiens) (UniProt Q8NG66)
T1 sequence (whole entry): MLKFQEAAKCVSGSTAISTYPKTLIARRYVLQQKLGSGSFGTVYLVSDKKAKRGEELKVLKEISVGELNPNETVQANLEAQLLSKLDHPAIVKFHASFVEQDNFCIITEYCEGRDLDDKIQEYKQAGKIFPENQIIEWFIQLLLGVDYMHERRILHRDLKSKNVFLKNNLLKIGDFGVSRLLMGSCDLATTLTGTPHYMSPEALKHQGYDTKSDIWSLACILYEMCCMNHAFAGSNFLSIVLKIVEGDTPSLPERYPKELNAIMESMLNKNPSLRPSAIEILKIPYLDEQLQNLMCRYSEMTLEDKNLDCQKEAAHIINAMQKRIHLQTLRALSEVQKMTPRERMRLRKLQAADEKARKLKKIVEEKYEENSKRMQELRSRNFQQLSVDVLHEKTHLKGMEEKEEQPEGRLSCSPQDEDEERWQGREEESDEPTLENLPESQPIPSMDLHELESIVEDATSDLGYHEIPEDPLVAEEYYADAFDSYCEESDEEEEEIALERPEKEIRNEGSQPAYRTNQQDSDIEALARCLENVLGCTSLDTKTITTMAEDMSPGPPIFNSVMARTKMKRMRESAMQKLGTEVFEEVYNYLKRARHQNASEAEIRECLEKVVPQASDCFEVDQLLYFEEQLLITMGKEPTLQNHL

[4] = molecular target: Fibroblast growth factor receptor 3 (Homo sapiens) (UniProt P22607)
Sequence of Fibroblast growth factor receptor 3 (Homo sapiens) (P22607 23-806 limits assumed): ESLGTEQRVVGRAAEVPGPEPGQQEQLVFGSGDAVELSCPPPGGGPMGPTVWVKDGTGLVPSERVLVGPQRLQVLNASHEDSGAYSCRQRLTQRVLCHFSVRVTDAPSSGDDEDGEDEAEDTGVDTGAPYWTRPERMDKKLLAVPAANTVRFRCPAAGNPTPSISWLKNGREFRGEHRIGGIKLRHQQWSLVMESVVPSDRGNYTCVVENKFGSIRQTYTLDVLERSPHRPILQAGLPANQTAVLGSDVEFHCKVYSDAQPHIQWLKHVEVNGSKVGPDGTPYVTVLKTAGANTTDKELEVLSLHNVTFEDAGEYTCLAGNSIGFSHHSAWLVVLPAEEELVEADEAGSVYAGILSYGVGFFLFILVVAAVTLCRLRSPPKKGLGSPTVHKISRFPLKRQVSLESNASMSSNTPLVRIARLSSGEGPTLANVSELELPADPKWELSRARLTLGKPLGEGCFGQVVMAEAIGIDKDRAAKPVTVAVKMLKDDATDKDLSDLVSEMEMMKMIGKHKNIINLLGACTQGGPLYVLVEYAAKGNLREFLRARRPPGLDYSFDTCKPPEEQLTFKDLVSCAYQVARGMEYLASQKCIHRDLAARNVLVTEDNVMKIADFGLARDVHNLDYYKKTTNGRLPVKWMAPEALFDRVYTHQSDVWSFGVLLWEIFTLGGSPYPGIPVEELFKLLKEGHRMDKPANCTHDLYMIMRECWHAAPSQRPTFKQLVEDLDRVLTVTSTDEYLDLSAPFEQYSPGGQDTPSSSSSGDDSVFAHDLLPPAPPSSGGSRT

[5] = molecular target: Tyrosine-protein kinase HCK (Homo sapiens) (UniProt P08631)
Sequence of Tyrosine-protein kinase HCK (Homo sapiens) (P08631 2-526 limits assumed): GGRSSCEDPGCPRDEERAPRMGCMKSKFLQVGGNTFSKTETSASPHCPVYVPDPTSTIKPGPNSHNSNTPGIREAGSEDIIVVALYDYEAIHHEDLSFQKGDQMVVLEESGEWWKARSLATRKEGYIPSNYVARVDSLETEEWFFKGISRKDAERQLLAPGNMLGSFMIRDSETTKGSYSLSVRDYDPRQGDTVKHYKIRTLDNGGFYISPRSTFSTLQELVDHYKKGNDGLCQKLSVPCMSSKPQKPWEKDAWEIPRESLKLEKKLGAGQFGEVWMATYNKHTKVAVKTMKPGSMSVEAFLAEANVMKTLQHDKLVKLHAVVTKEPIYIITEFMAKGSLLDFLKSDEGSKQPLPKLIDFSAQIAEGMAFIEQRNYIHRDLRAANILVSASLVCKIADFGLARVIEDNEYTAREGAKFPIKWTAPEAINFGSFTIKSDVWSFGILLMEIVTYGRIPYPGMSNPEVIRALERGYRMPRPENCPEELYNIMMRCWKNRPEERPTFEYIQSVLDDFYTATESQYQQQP

[6] = system: Epidermal growth factor receptor (Homo sapiens), P00533 [UNDEFINED MUTATION]
[7] = molecular target: T2, Beta-adrenergic receptor kinase 1 (Homo sapiens) (UniProt P25098)
T2 sequence (whole entry): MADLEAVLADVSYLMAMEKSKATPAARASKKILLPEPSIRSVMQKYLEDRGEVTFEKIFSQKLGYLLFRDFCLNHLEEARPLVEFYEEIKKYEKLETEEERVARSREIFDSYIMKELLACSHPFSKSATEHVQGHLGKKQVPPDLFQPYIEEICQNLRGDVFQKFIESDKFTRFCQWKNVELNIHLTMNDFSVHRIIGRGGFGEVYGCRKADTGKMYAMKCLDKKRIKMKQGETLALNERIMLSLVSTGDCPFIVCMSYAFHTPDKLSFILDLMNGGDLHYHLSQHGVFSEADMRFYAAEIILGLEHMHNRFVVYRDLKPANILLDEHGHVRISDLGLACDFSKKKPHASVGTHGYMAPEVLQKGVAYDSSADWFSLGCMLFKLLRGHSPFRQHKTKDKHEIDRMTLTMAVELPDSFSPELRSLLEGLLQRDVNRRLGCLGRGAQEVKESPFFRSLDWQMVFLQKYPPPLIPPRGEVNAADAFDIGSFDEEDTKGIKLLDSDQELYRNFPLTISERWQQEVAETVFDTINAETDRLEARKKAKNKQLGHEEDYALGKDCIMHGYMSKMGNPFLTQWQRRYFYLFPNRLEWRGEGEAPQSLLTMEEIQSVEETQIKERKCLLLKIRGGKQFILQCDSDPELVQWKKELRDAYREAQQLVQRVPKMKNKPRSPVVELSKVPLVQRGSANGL

[8] = molecular target: Calcium/calmodulin-dependent protein kinase type 1 (Homo sapiens) (UniProt Q14012)
Sequence of Calcium/calmodulin-dependent protein kinase type 1 (Homo sapiens) (Q14012 whole entry, looked up): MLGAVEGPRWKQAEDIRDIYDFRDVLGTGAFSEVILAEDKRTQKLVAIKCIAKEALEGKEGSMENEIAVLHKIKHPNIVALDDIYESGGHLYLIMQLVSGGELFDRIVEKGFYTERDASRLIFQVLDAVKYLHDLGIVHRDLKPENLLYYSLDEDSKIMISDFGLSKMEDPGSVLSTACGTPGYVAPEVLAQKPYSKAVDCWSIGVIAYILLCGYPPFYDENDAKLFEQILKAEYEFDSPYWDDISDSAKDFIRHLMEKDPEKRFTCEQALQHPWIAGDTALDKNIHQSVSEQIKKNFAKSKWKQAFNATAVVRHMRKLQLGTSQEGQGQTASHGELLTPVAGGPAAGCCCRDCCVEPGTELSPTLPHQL

[9] = molecular target: Cyclin-dependent kinase 18 (Homo sapiens) (UniProt Q07002)
Sequence of Cyclin-dependent kinase 18 (Homo sapiens) (Q07002 whole entry, the tested form may be a part): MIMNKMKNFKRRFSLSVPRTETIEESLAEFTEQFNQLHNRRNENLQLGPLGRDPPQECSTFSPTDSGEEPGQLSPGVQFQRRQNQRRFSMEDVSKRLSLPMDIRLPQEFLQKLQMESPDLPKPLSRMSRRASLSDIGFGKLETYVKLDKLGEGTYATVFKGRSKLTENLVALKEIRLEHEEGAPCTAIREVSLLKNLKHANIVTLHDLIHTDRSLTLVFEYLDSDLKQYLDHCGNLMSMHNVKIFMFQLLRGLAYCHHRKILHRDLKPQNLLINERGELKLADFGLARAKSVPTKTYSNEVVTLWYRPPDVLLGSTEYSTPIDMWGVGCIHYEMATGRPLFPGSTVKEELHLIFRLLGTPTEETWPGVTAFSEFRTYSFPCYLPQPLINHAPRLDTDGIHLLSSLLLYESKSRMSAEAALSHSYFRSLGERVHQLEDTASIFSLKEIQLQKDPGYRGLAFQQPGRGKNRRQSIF

[10] = molecular target: Epithelial discoidin domain-containing receptor 1 (Homo sapiens) (UniProt Q08345)
Sequence of Epithelial discoidin domain-containing receptor 1 (Homo sapiens) (Q08345 whole entry, the tested form may be a part): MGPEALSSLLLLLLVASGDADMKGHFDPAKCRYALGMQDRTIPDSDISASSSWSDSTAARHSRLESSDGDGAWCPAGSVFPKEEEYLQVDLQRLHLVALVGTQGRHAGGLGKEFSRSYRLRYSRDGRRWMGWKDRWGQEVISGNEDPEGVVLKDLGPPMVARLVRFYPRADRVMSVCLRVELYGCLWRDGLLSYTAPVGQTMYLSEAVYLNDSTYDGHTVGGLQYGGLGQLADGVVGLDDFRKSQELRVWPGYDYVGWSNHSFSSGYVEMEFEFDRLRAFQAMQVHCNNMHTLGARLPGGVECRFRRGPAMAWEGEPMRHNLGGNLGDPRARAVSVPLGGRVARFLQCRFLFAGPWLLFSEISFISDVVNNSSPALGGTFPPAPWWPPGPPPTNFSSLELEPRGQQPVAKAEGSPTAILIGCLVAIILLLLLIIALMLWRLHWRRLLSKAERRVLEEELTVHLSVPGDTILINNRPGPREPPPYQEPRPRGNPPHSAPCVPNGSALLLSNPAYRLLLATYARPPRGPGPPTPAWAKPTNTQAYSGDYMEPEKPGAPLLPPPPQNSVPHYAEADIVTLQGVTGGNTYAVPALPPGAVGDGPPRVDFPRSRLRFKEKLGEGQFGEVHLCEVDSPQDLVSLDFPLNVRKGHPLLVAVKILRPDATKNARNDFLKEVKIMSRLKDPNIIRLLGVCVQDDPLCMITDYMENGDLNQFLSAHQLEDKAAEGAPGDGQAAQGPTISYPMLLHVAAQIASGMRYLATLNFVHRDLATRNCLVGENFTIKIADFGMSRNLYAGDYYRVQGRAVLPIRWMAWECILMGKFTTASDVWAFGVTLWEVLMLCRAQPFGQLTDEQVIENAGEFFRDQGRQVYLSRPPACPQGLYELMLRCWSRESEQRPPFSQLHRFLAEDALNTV

[11] = molecular target: T3, Serine/threonine-protein kinase 17A (Homo sapiens) (UniProt Q9UEE5)
T3 sequence (whole entry): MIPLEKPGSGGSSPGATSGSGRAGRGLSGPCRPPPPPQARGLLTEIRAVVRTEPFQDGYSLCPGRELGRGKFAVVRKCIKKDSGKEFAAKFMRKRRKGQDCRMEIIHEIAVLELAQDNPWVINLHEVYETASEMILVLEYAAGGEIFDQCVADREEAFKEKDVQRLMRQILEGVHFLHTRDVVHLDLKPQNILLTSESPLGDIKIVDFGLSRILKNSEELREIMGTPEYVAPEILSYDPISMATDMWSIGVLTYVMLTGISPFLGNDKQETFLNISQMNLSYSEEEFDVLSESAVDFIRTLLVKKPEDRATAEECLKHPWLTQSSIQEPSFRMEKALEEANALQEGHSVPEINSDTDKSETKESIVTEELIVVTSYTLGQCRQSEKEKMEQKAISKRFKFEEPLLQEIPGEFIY

[12] = system: Epidermal growth factor receptor (Homo sapiens), P00533 [L858R,T790M]

Measured: residual activity

Sequence of Serine/threonine-protein kinase pim-1 (Homo sapiens) (P11309 whole entry, looked up): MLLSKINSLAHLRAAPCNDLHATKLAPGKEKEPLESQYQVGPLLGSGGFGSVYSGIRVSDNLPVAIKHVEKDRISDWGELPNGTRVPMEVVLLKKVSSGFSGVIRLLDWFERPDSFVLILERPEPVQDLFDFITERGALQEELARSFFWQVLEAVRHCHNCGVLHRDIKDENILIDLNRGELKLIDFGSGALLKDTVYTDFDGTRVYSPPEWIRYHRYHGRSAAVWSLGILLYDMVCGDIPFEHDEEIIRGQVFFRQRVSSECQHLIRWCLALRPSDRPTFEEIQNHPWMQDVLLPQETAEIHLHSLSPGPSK
Sequence of ALK tyrosine kinase receptor (Homo sapiens), Q9UM73 [L1196M] (Q9UM73 whole entry L1196M, looked up): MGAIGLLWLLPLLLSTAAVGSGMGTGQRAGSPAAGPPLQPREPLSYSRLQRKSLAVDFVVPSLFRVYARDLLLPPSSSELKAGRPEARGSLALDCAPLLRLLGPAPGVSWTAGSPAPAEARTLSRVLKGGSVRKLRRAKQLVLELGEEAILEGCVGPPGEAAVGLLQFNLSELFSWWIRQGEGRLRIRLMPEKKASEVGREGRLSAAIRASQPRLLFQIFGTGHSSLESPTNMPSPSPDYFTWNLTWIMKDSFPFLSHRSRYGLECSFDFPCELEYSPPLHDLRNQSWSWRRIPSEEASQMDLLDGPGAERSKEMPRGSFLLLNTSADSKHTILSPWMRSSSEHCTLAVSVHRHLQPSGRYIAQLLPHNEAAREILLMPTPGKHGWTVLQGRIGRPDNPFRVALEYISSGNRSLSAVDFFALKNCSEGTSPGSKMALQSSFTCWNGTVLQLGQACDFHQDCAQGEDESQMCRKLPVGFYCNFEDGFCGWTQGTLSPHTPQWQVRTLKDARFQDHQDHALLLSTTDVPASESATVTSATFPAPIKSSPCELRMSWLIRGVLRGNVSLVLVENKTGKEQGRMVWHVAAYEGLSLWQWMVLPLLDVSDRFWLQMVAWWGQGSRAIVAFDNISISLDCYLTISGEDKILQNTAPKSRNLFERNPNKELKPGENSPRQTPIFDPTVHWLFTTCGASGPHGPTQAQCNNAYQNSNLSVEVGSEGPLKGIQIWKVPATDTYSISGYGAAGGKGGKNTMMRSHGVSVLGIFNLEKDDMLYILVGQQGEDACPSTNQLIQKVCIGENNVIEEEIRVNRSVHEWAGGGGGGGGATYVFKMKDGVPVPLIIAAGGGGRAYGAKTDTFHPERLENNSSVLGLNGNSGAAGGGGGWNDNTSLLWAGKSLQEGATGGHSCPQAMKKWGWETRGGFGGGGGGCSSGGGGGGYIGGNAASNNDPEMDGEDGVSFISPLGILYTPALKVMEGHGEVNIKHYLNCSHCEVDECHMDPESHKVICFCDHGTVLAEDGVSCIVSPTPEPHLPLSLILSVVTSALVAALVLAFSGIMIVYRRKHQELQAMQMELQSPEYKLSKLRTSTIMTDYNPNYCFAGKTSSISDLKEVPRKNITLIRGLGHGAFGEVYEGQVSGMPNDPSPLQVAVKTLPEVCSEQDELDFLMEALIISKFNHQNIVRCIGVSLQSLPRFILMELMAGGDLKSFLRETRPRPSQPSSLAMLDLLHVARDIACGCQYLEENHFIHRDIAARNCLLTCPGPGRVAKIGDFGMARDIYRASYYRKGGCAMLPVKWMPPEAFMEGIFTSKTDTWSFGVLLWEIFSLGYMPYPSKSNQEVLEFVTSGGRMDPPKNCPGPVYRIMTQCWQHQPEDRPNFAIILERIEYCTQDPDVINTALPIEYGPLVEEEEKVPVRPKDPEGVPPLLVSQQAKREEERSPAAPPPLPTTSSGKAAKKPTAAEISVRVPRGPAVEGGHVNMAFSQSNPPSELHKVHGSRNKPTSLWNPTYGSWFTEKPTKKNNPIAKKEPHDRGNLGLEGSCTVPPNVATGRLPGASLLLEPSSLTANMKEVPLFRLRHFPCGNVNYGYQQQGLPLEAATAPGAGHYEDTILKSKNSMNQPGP

Cc1nc(C2CCN(C(=O)c3ccc(OC(F)(F)F)cc3N)CC2)c2ncc(N3CCN(C)CC3)cc2n1 [BAY-693]
inactive: [1] 98% | [2] 100% | [3] 100% | [4] 100% | [5] 95% | [6] 70% | [7] 92% | [8] 100% | [9] 100% | [10] 100% | [11] 100% | [12] 88%

CN1CCN(c2cnc3c(C4CCN(C(=O)c5ccc(OC(F)(F)F)cc5N)CC4)ncnc3c2)CC1 [BAY-885]
inactive: [1] 100% | [2] 90% | [3] 100% | [4] 100% | [5] 95% | [6] 83% | [7] 100% | [8] 100% | [9] 100% | [10] 100% | [11] 92% | [12] 95%

From ChEMBL document CHEMBL4507268 (2021)
